Experimental findings from ChEMBL document CHEMBL6120994, “Unravelling the potential of natural chelating agents in the control of Staphylococcus aureus and Pseudomonas aeruginosa biofilms” (Eur J Med Chem, 2025) are described below.

For series [1], the system named is Pseudomonas aeruginosa. Put plainly: Antibiofilm activity against Pseudomonas aeruginosa ATCC 10145 assessed as reduction in biofilm cells culturability by measuring reduction in number of CFU at 500 to 1000 ug/ml measured after 24 hrs by visual counting method. Particulars: dose 500-1000 µg/ml. It is filed as functional, organism-based.
Another series relates to Acinetobacter baumannii. The series is described as follows: Antibacterial activity against Acinetobacter baumannii assessed as inhibition of bacterial growth incubated for 16 hrs by broth microdilution method. The class given is functional. On the technique in general: Dilution methods test growth across graded concentrations, often in twofold steps.
Series [2] relates to Staphylococcus aureus. Put plainly: Antibiotic adjuvant activity against preestablished 24 hr-old Staphylococcus aureus CECT 976 assessed as potentiation of tobramycin-induced antibiofilm activity by measuring reduction of biomass at 10000 ug/ml measured after 24 hrs in presence of 1/4XMIC to MIC tobramycin by crystal violet staining method. It is filed as functional, organism-based. The following applies: dose 10000.0 µg/ml.

For series [3], the system named is Staphylococcus aureus. Put plainly: Antibiofilm activity against Staphylococcus aureus CECT 976 assessed as reduction in biomass production at 500 to 1000 ug/ml measured after 24 hrs by crystal violet staining method. It is filed as functional. The following applies: dose 500-1000 µg/ml, at 500 to 1000 µg/mL.
Series [4] deals with Pseudomonas aeruginosa. The series is described as follows: Antibiotic adjuvant activity against Pseudomonas aeruginosa ATCC 10145 assessed as fractional inhibitory concentration index (MBC) at 125 ug/ml measured after 24 hrs in presence of ciprofloxacin by checkerboard assay. It is filed as functional. The following applies: dose 125 µg/ml.
Series [5] relates to Pseudomonas aeruginosa. The series is described as follows: Antibiofilm activity against Pseudomonas aeruginosa PAK01 biofilm assessed as reduction of bacterial biomass by crystal violet staining based analysis. It is filed as functional.
The subject of series [6] is Staphylococcus aureus. The series is described as follows: Antibacterial activity against Staphylococcus aureus CECT 976 assessed as inhibition of bacterial growth by measuring inhibition zone diameter at 1000 ug/ml incubated for 24 hrs in presence of tobramycin by disc diffusion method (reference value: 12.5 +/- 1.29 mm). It is filed as functional. Particulars: read-out: DIZ.

Series [7] deals with Staphylococcus aureus. Put plainly: Antibacterial activity against Staphylococcus aureus ATCC 6538 assessed as inhibition of bacterial growth measured after 24 hrs by broth microdilution method. The class given is functional.
Series [8] has as its system Pseudomonas aeruginosa. Put plainly: Antibiofilm activity against Pseudomonas aeruginosa ATCC 10145 assessed as reduction in biomass production at 500 to 1000 ug/ml measured after 24 hrs by crystal violet staining method. The following applies: dose 500-1000 µg/ml. The class given is functional, organism-based.
Series [9] concerns Pseudomonas aeruginosa. The series is described as follows: Bactericidal activity against Pseudomonas aeruginosa ATCC 10145 assessed as bacterial killing incubated in MHB for 24 hrs and measured following culturing on agar plate for 24 hrs. The class given is functional. The following applies: time 48 hrs.
Series [10] has as its system Staphylococcus aureus. The series is described as follows: Antibiofilm activity against Staphylococcus aureus ATCC 6538 assessed as reduction in biomass at 700 ug/ml measured after 48 hrs by crystal violet staining based analysis. It is filed as functional.
Series [11] has as its system Staphylococcus aureus. Put plainly: Inhibition of virulence production in Staphylococcus aureus CECT 976 biofilms assessed as diameter of lipases halo at 1XMTC measured after 48 hrs (reference value: 11.8 to 12.5 mm). It is filed as functional.
A short description of series [12]: Metal chelating activity at iron(III) in chrome azurol sulphonate solution at 1000 ug/ml incubated for 30 mins by spectrophotometric analysis. Particulars: dose 1000.0 µg/ml.
The subject of series [13] is Staphylococcus aureus. The series is described as follows: Inhibition of virulence production in pre-established 24 hr-old Staphylococcus aureus CECT 976 biofilms assessed as diameter of gelatinases halo at 1XMTC measured after 48 hrs (reference value: 10 mm). The class given is functional.
The subject of series [14] is Staphylococcus aureus. Put plainly: Antibiotic adjuvant activity against Staphylococcus aureus CECT 976 assessed as potentiation of tobramycin-induced antibiofilm activity by measuring reduction of CFU of biofilm cells at 500 ug/ml measured after 24 hrs in presence of 1/2X to 1/8XMIC tobramycin by visual counting method. It is filed as functional. Particulars: dose 500 µg/ml.

For series [15], the system named is Pseudomonas aeruginosa. The series is described as follows: Antibiofilm activity against Pseudomonas aeruginosa ATCC 10145 assessed as reduction in metabolic activity of biofilm cells at 500 to 1000 ug/ml by resazurin staining based fluorescence analysis. It is filed as functional, organism-based. Particulars: dose 500-1000 µg/ml. For orientation: Alamar Blue is a resazurin reagent that responds to reducing activity.

Series [16] has as its system Staphylococcus aureus. Put plainly: Antibiotic adjuvant activity against Staphylococcus aureus CECT 976 assessed as fold potentiation of tobramycin-induced antibiofilm activity by measuring reduction in biomass production at 500 ug/ml measured after 24 hrs in presence of 1/4XMIC tobramycin by crystal violet staining method relative to tobramycin treated control. Particulars: dose 500 µg/ml. It is filed as functional.

Series [17] has as its system Pseudomonas aeruginosa. Put plainly: Antibiofilm activity against Pseudomonas aeruginosa PAO1 biofilm assessed as reduction of bacterial biomass by crystal violet staining based analysis. It is filed as functional.
In series [18] the test system is Pseudomonas aeruginosa. Put plainly: Antibiotic adjuvant activity against Pseudomonas aeruginosa ATCC 10145 assessed as ciprofloxacin MBC at 125 ug/ml measured after 24 hrs in presence of ciprofloxacin by checkerboard assay (reference value: 32 ug/ml). It is filed as functional. Particulars: dose 125 µg/ml.
The subject of series [19] is Pseudomonas aeruginosa. The series is described as follows: Antibiotic adjuvant activity against Pseudomonas aeruginosa ATCC 10145 assessed as potentiation of ciprofloxacin-induced antibacterial activity by measuring fractional inhibitory concentration index (MIC) at 15.6 ug/ml measured after 24 hrs by checkerboard assay. The class given is functional. The following applies: dose 15.6 µg/ml.

Series [20] relates to Staphylococcus aureus. Put plainly: Antibiofilm activity against preestablished 24 hr-old Staphylococcus aureus CECT 976 assessed as reduction in biofilm cells culturability by measuring log reduction of CFU of biofilm cells at 10XMTC measured after 24 hrs by visual counting method. The class given is functional.
For series [21], the system named is Staphylococcus aureus. Put plainly: Inhibition of virulence production in pre-established 24 hr-old Staphylococcus aureus CECT 976 biofilms assessed as diameter of protease halo at 10XMTC measured after 72 hrs (reference value: 12.5 to 13.3 mm). The class given is functional.
Series [22] deals with Pseudomonas aeruginosa. The series is described as follows: Antibiofilm activity against Pseudomonas aeruginosa ATCC 10145 assessed as reduction in biomass production at 500 ug/ml measured after 24 hrs by crystal violet staining method. It is filed as functional.
For series [23], the system named is Pseudomonas aeruginosa. The series is described as follows: Antibiofilm activity against Pseudomonas aeruginosa ATCC 10145 assessed as reduction in biomass production at 1000 ug/ml measured after 24 hrs by crystal violet staining method. The class given is functional.
The subject of series [24] is Pseudomonas aeruginosa. Put plainly: Antibiofilm activity against preestablished 24 hr-old Pseudomonas aeruginosa ATCC 10145 assessed as reduction in biofilm cells culturability by measuring log reduction of CFU of biofilm cells at 10XMTC measured after 24 hrs by visual counting method. The class given is functional.
Series [25] relates to Staphylococcus aureus. The series is described as follows: Antibacterial activity against Staphylococcus aureus assessed as inhibition of bacterial growth incubated for 24 hrs by broth microdilution method. The class given is functional.
Series [26] deals with Pseudomonas aeruginosa. Put plainly: Antibiotic adjuvant activity against Pseudomonas aeruginosa ATCC 10145 assessed as fractional inhibitory concentration index (MBC) at 15.6 ug/ml measured after 24 hrs in presence of ciprofloxacin by checkerboard assay. It is filed as functional. The following applies: dose 15.6 µg/ml.
The nature of series [27]: Cytotoxicity against human HepG2 cells assessed as cell mass at 375 to 500 ug/ml measured after 24 hrs by SRB binding assay. It is filed as toxicity, cell-based. The following applies: at 375 to 500 µg/mL, dose 375-500 µg/ml, read-out: Activity. For orientation: In SRB staining, fixed cells bind dye roughly in proportion to their protein.
Series [28] has as its system Pseudomonas aeruginosa. The series is described as follows: Antibacterial activity against Pseudomonas aeruginosa assessed as inhibition of bacterial growth incubated for 24 hrs by broth microdilution method. The class given is functional.
The test system of series [29] is Pseudomonas aeruginosa. Put plainly: Antibiofilm activity against Pseudomonas aeruginosa ATCC 10145 assessed as reduction in metabolic activity of biofilm cells at 1000 ug/ml by resazurin staining based fluorescence analysis. It is filed as functional.
Series [30] has as its system Staphylococcus aureus. Put plainly: Antibacterial activity against Staphylococcus aureus assessed as loss of intracellular content at 5000 ug/ml incubated for 4 hrs by transmission electron microscopy. The following applies: dose 5000 µg/ml. The class given is functional.
Series [31] deals with Staphylococcus aureus. Put plainly: Antibiotic adjuvant activity against preestablished 24 hr-old Staphylococcus aureus CECT 976 assessed as potentiation of tobramycin-induced antibiofilm activity by measuring reduction of biomass at 10000 ug/ml measured after 24 hrs in presence of 1/4XMIC tobramycin by crystal violet staining method. It is filed as functional.

Each structure is given as a SMILES string. Values after ≈ are worked out from the molar mass of the structure shown. Active and inactive are the calls of the source.

`O=c1cc(CO)occ1O` [KOJIC ACID]: the result in the series on Pseudomonas aeruginosa [1], in the series on Staphylococcus aureus [2], in the series with Pseudomonas aeruginosa [8] and in the series on Pseudomonas aeruginosa [15] was inactive. Also, the minimal inhibitory concentration (MIC) in the series with Acinetobacter baumannii stood at 3410 µg/mL (≈ 24 mM); in the series on Staphylococcus aureus [7], 1400 µg/mL (≈ 9.85 mM). The “inhibition (INH)” value with Staphylococcus aureus [3] came to 26%; with Pseudomonas aeruginosa [5], 5%; in the series with Pseudomonas aeruginosa [17], 27%. Further, the “fractional inhibitory concentration index (FICI)” value turned out to be 1 with Pseudomonas aeruginosa [4] and 0.5 with Pseudomonas aeruginosa [19]. Further, in the series on Staphylococcus aureus [6], the zone of inhibition at 1000 µg/mL was determined as 13.2 mm. For the same molecule, the values for the MBC in the series on Pseudomonas aeruginosa [9] and with Pseudomonas aeruginosa [18] were over 1000 µg/mL and 32 µg/mL, respectively. Also, the inhibition at 700 µg/mL with Staphylococcus aureus [10] was 40%. Moreover, the Activity with Staphylococcus aureus [11] is 3.3 mm; in [12] it was 85%; in the series on Staphylococcus aureus [13], 0 mm; in the series with Staphylococcus aureus [14], 2 log10CFU/cm^-2; with Staphylococcus aureus [20], 1.9 log10CFU/cm^-2; in the series with Staphylococcus aureus [21], 0 mm. Besides, the “fold change (FC)” value with Staphylococcus aureus [16] stood at 2.6.
Consider `Cc1occc(=O)c1O` [MALTOL], for which, in the series with Pseudomonas aeruginosa [22], the inhibition at 500 µg/mL was under 15%. Also, the inhibition at 1000 µg/mL in the series on Pseudomonas aeruginosa [23] stood at 40%; in the series with Pseudomonas aeruginosa [29], 30%. For the same molecule, the “inhibition (INH)” value in the series on Staphylococcus aureus [3] stood at 26%. Besides, the zone of inhibition at 1000 µg/mL in the series with Staphylococcus aureus [6] is 19 mm. The Activity with Pseudomonas aeruginosa [24] is 3.1 log10CFU/cm^-2; with Staphylococcus aureus [11] it was 3 mm; in the series with Staphylococcus aureus [30], 7.7%; in series [12] it was 90%; with Staphylococcus aureus [13], 0 mm; in the series on Staphylococcus aureus [21], 0 mm. Further, the MIC with Staphylococcus aureus [25] and with Pseudomonas aeruginosa [28] was 4000 µg/mL (≈ 31.7 mM) each time. Moreover, the entries for the “fractional inhibitory concentration index (FICI)” value with Pseudomonas aeruginosa [26] and with Pseudomonas aeruginosa [19] were 1 and 0.5, respectively. Also, the viability at 24 h in series [27] was determined as 68%. In addition, in the series with Pseudomonas aeruginosa [9], the MBC is over 1000 µg/mL. The inhibition at 10000 µg/mL in the series on Staphylococcus aureus [31] worked out at 31%.

What is called MIC is the lowest concentration found to suppress growth. The term MBC denotes the smallest concentration meeting the test's criterion for killing. A word on the inhibition: it is the drop in the measured response relative to a control, in per cent.
